Results as given in patent US9730447B2, “Fungicidal amides” (E I DU PONT DE NEMOURS AND COMPANY, priority 2013, dated 2017).
Marks after values point to notes of the source that are not given here.

Key:
Type in all cases: in vivo
Botrytis cinerea = assay: Test A: preventive spray on tomato seedlings, Botrytis cinerea (gray mold), visual disease rating; conditions: 100 = 100% disease control, 0 = no control relative to controls, unmarked values; for pest or weed control at 40 µg/mL, 160 g/ha: 96 h
Description: (§1) General protocol for preparing test suspensions for Tests A-E: the test compounds were first dissolved in acetone in an amount equal to 3% of the final volume and then suspended at the desired concentration (in ppm) in acetone and purified water (50/50 mix by volume) containing 250 ppm of the surfactant Trem® 014 (polyhydric alcohol esters). The resulting test suspensions were then used in Tests A-E. Compounds were sprayed with either a 40 ppm or 10 ppm (*) test suspension to the point of run-off on the test plants which is the equivalent of a rate of 160 g ai/ha or 40 g ai/ha, respectively.
The test suspension was sprayed to the point of run-off on tomato seedlings. The following day the seedlings were inoculated with a spore suspension of Botrytis cinerea (the causal agent of gray mold on many crops) and incubated in a saturated atmosphere at 20° C. for 48 h, and moved to a growth chamber at 27° C. for 2 days, after which time visual disease ratings were made.
(§2) Results for Tests A-E are given in Table A. In the Table, a rating of 100 indicates 100% disease control and a rating of 0 indicates no disease control (relative to the controls). A dash (-) indicates no test results.

[1] = tested on: Stagonospora nodorum (also known as Septoria nodorum); assay: Test B: preventive spray on wheat seedlings, Stagonospora nodorum (wheat glume blotch), visual disease rating
Description: as §1
(§3) The test suspension was sprayed to the point of run-off on wheat seedlings. The following day the seedlings were inoculated with a spore suspension of Stagonospora nodorum (also known as Septoria nodorum; the causal agent of wheat glume blotch) and incubated in a saturated atmosphere at 20° C. for 48 h, and then moved to a growth chamber at 20° C. for 6 days, after which time visual disease ratings were made.
as §2

[2] = tested on: Puccinia recondite f. sp. tritici; assay: Test D: preventive spray on wheat seedlings, Puccinia recondite f. sp. tritici (wheat leaf rust), visual disease rating
Description: as §1
as §3, with “Puccinia recondite f. sp. tritici; (the” for “Stagonospora nodorum (also known as Septoria nodorum; the”, “leaf rust)” for “glume blotch)”, “24” for “48”
as §2

[3] = tested on: Erysiphe graminis f. sp. tritici; assay: Test E: preventive spray on wheat seedlings, Erysiphe graminis f. sp. tritici (wheat powdery mildew), visual disease rating
Description: as §1
The test suspension was sprayed to the point of run-off on wheat seedlings. The following day the seedlings were inoculated with a spore dust of Erysiphe graminis f. sp. tritici, (the causal agent of wheat powdery mildew) and incubated in a growth chamber at 20° C. for 8 days, after which time visual disease ratings were made.
as §2

Septoria tritici = assay: Test C: preventive spray on wheat seedlings, Septoria tritici (wheat leaf blotch), visual disease rating
Description: as §1
The test suspension was sprayed to the point of run-off on wheat seedlings. The following day the seedlings were inoculated with a spore suspension of Septoria tritici (the causal agent of wheat leaf blotch) and incubated in a saturated atmosphere at 24° C. for 48 h, and then moved to a growth chamber at 20° C. for 21 days, after which time visual disease ratings were made.
as §2

[4] = 100 = 100% disease control, 0 = no control, unmarked values
[5] = values marked with asterisk (*), meaning not given

SMILES | Test B disease control rating [1, 4] | Test D disease control rating [2, 4] | Test E disease control rating [3, 4] | Test C disease control rating (Septoria tritici; [4]) | other results
Cn1cc(C(=O)Nc2ccccc2-c2cnc(-n3ccc(C(F)(F)F)n3)c(F)c2)c(C(F)F)n1 [Compound 68, 3-(difluoromethyl)-N-[2-[5-fluoro-6-[3-(trifluoromethyl)-1H-pyrazol-1-yl]-3-pyridinyl]phenyl]-1-methyl-1H-pyrazole-4-carboxamide] | – | – | – | – | pest or weed control at 40 µg/mL, 160 g/ha (Botrytis cinerea): 94%
Cn1cc(C(=O)Nc2ccccc2-c2ccc(-n3ccc(-c4cc(F)cc(F)c4)n3)nc2)c(C(F)F)n1 [compound 89] | 0% | 100% | 79% | – | Test A disease control rating (Botrytis cinerea): 75%
O=C(Nc1ccccc1-c1ccc(-n2ccc(C(F)(F)F)n2)nn1)c1ncccc1C(F)(F)F [Compound 59, 3-(trifluoromethyl)-N-[2-[6-[3-(trifluoromethyl)-1H-pyrazol-1-yl]-3-pyridazinyl]phenyl]-2-pyridinecarboxamide] | – | – | – | – | pest or weed control at 40 µg/mL, 160 g/ha (Botrytis cinerea): 0%
Cc1ccsc1C(=O)Nc1ccccc1-c1ccc(-n2ccc(C(F)(F)F)n2)nc1 [compound 93] | 97% | 100% | 99% | – | Test A disease control rating (Botrytis cinerea): 0%
CC(Cc1ccc(-n2ccc(C(F)(F)F)n2)nc1)NC(=O)c1cn(C)nc1C(F)F (centres unmarked) [Compound 83, 3-(difluoromethyl)-1-methyl-N-[1-methyl-2-[6-[3-(trifluoromethyl)-1H-pyrazol-1-yl]-3-pyridinyl]ethyl]-1H-pyrazole-4-carboxamide] | – | – | – | – | pest or weed control at 40 µg/mL, 160 g/ha (Botrytis cinerea): 99%
CC(Cc1ccc(-n2ccc(C(F)(F)F)n2)nc1)NC(=O)c1ncccc1C(F)(F)F (centres unmarked) [Compound 84, N-[1-methyl-2-[6-[3-(trifluoromethyl)-1H-pyrazol-1-yl]-3-pyridinyl]ethyl]-3-(trifluoromethyl)-2-pyridinecarboxamide] | – | – | – | – | pest or weed control at 40 µg/mL, 160 g/ha (Botrytis cinerea): 66%
Cn1cc(C(=O)Nc2ccccc2-c2ccc(-n3ccc(-c4ccccc4F)n3)nc2)c(C(F)F)n1 [compound 90] | 46% | 100% | 72% | – | Test A disease control rating (Botrytis cinerea): 93%
Cn1cc(C(=O)Nc2ccccc2-c2cnc(-n3ccc(C(F)F)n3)c(F)c2)c(C(F)F)n1 [compound 162] | 68% | 100% | 99% | 98% | –
O=C(Nc1ccccc1-c1cnc(-n2ccc(C(F)(F)F)n2)c(Cl)c1)c1sccc1F [compound 176] | – | – | – | – | Test B disease control rating [1, 5]: 0* %; Test C disease control rating (Septoria tritici; [5]): 93* %; Test D disease control rating [2, 5]: 0* %; Test E disease control rating [3, 5]: 0* %
O=C(NCCc1ncc(-n2ccc(Br)n2)cn1)c1ncccc1C(F)(F)F [Compound 179] | 0% | – | – | – | Test C disease control rating (Septoria tritici; [5]): 5* %; Test D disease control rating [2, 5]: 0* %; Test E disease control rating [3, 5]: 0* %
CCOC(=O)C1CC(c2ccc(-c3ccccc3NC(=O)c3ncccc3C(F)(F)F)cn2)=NO1 (racemic) [compound 145] | 0% | 0% | 0% | 26% | –
Cc1ccsc1C(=O)Nc1ccccc1-c1cnc(-n2ccc(C(F)(F)F)n2)c(F)c1 [compound 152] | 99% | 100% | 99% | 99% | –
O=C(Nc1ccccc1-c1cnc(-n2ccc(C(F)(F)F)n2)c(Cl)c1)c1ccccc1C(F)F [compound 132] | 0% | 99% | 98% | 99% | –
Cc1ccn(-c2cnc(CCNC(=O)c3ncccc3C(F)(F)F)nc2)n1 [Compound 178] | – | – | – | – | Test B disease control rating [1, 5]: 3* %; Test C disease control rating (Septoria tritici; [5]): 0* %; Test D disease control rating [2, 5]: 0* %; Test E disease control rating [3, 5]: 0* %
O=C(Nc1ccccc1-c1cnc(-n2ccc(C(F)(F)F)n2)c(Cl)c1)c1sccc1C(F)(F)F [compound 167] | – | – | – | – | Test B disease control rating [1, 5]: 98* %; Test C disease control rating (Septoria tritici; [5]): 100* %; Test D disease control rating [2, 5]: 100* %; Test E disease control rating [3, 5]: 94* %
O=C(Nc1ccccc1-c1cnc(-n2ccc(C(F)(F)F)n2)c(Cl)c1)c1ncccc1C(F)(F)F [Compound 34, N-[2-[5-chloro-6-[3-(trifluoromethyl)-1H-pyrazol-1-yl]-3-pyridinyl]phenyl]-3-(trifluoromethyl)-2-pyridinecarboxamide] | – | – | – | – | pest or weed control at 40 µg/mL, 160 g/ha (Botrytis cinerea): 96%
COc1cccc(-c2cnn(-c3ccc(-c4ccccc4NC(=O)c4ncccc4C(F)(F)F)cn3)c2)c1 [compound 16] | 100% | 99% | 69% | 100% | –
O=C(Nc1ccccc1-c1cnc(-n2ccc(C(F)(F)F)n2)c(F)c1)c1ncsc1C(F)(F)F [compound 126] | 99% | 100% | 99% | 99% | –
Cc1nc(C(F)(F)F)c(C(=O)Nc2ccccc2-c2cnc(-n3ccc(C(F)(F)F)n3)c(F)c2)s1 [compound 151] | 0% | 100% | 98% | 98% | –
O=C(Nc1ccccc1-c1cnc(-n2ccc(C(F)F)n2)c(F)c1)c1ncccc1C(F)(F)F [compound 161] | 100% | 100% | 99% | 95% | –
O=C(Nc1ccccc1-c1cnc(-n2cc(Cl)cn2)c(Cl)c1)c1ncccc1C(F)(F)F [Compound 61, N-[2-[5-chloro-6-[4-chloro-1H-pyrazol-1-yl]-3-pyridinyl]phenyl]-3-(trifluoromethyl)-2-pyridinecarboxamide] | – | – | – | – | pest or weed control at 40 µg/mL, 160 g/ha (Botrytis cinerea): 41%
O=C(NCCc1ncc(-n2ccc(Cl)n2)cn1)c1ncccc1C(F)(F)F [Compound 181] | – | – | – | – | Test B disease control rating [1, 5]: 64* %; Test C disease control rating (Septoria tritici; [5]): 20* %; Test D disease control rating [2, 5]: 9* %; Test E disease control rating [3, 5]: 0* %
COc1cccc(C2CC(c3ccc(-c4ccccc4NC(=O)c4ncccc4C(F)(F)F)cn3)=NN2C)c1 (centres unmarked) [compound 130] | 11% | 97% | 69% | 89% | –
Cn1cc(C(=O)Nc2ccccc2-c2cnc(-n3ccc(C(F)(F)F)n3)c(F)c2)c(C(F)(F)F)n1 [compound 150] | 92% | 100% | 99% | 98% | –
O=C(Nc1ccccc1-c1cnc(-n2ccc(C(F)(F)F)n2)c(Cl)c1)c1sccc1Cl [compound 168] | – | – | – | – | Test B disease control rating [1, 5]: 0* %; Test C disease control rating (Septoria tritici; [5]): 95* %; Test D disease control rating [2, 5]: 99* %; Test E disease control rating [3, 5]: 64* %
O=C(Nc1ccccc1-c1ccc(-n2cc(Br)cn2)nc1)c1ncccc1C(F)(F)F [compound 14] | 100% | 99% | 98% | 100% | –
CC1=C(C(=O)Nc2ccccc2-c2cnc(-n3ccc(C(F)(F)F)n3)c(F)c2)SCCO1 [compound 113] | 0% | 97% | 0% | 77% | –
O=C(Nc1ccccc1-c1cnc(-n2ccc(C(F)(F)F)n2)cn1)c1ncccc1C(F)(F)F [Compound 3, 3-(trifluoromethyl)-N-[2-[5-[3-(trifluoromethyl)-1H-pyrazol-1-yl]-2-pyrazinyl]phenyl]-2-pyridinecarboxamide] | – | – | – | – | pest or weed control at 40 µg/mL, 160 g/ha (Botrytis cinerea): 0%
O=C(Nc1ccccc1-c1cnc(-n2ccc(C(F)(F)F)n2)c(F)c1)c1nccnc1C(F)(F)F [compound 115] | 100% | 100% | 100% | 98% | –
